The values that follow come from patent US20210206818A1, “MESSENGER RIBONUCLEIC ACIDS FOR THE PRODUCTION OF INTRACELLULAR BINDING POLYPEPTIDES AND METHODS OF USE THEREOF” (ModernaTX, Inc., priority 2016, published 2021).

One data set concerns MCL1. Put plainly: Western blotting of MCL1 downregulation in Hep3B cells. It is filed as cell-based, human. The conditions noted are these: 24 hours, sorafenib at 10 uM. The procedure:
A first series of experiments was conducted to determine whether specific targeting of MCL1 recapitulates sorafenib synergy with SQT-BH3 in cells in vitro.
On the technique in general: A western blot detects proteins with antibodies after separation by electrophoresis.

In data set [1] the test system is Hep3B human hepatocellular carcinoma cells. Put plainly: Cell death of Hep3B cells transfected with truncated BID (tBID) mmRNA constructs (CellTiterGlo). It is filed as cell-based. The conditions noted are these: CellTiterGlo (CTG) assay, varying doses. From the text: One construct encoded a single copy of amino acids 61-195 of the BID protein that includes its BH3 domain (with a FLAG epitope tag). The open reading frame (ORF) amino acid sequence and corresponding nucleotide sequence encoding the ORF a.a. sequence are shown in SEQ ID NOs: 289 and 290, respectively. The sequence for the corresponding construct without the FLAG epitope tag is shown in SEQ ID NO: 291. A second construct encoded a single copy of amino acids 77-195 of the BID protein that includes its BH3 domain (with a FLAG epitope tag). The open reading frame (ORF) amino acid sequence and corresponding nucleotide sequence encoding the ORF a.a. sequence are shown in SEQ ID NOs: 292 and 293, respectively. The sequence for the corresponding construct without the FLAG epitope tag is shown in SEQ ID NO: 294. The open reading frame (ORF) amino acid sequence and corresponding nucleotide sequence encoding the ORF a.a. sequence of a third construct, containing amino acids 61-104 of the BID protein, are shown in SEQ ID NOs: 286 and 287, respectively. The sequence for the corresponding construct without the FLAG epitope tag is shown in SEQ ID NO: 288. […]
Hep3B cells/well were plated in 96 well plates and the cells were transfected with varying doses of the mmRNA constructs. Cell death was measured using the CellTiterGlo (CTG) assay. […]

In the case of `CNC(=O)c1cc(Oc2ccc(NC(=O)Nc3ccc(Cl)c(C(F)(F)F)c3)cc2)ccn1` [sorafenib], in the data set on MCL1, the “MCL1 downregulation (Western blotting)” value is “downregulated MCL1”.

B1: tBID (77-195): mmRNA encoding a single copy of amino acids 77-195 of the BID protein with FLAG tag; SEQ ID NOs: 292 and 293 (nucleic acid)
DNA: ATGGAAAGTCAAGAAGACATCATCCGGAATATTGCCAGGCACCTCGCCCAGGTCGGGGACAGCATGGACCGTAGCATCCCTCCGGGCCTGGTGAACGGCCTGGCCCTGCAGCTCAGGAACACCAGCCGGTCGGAGGAGGACCGGAACAGGGACCTGGCCACTGCCCTGGAGCAGCTGCTGCAGGCCTACCCTAGAGACATGGAGAAGGAGAAGACCATGCTGGTGCTGGCCCTGCTGCTGGCCAAGAAGGTGGCCAGTCACACGCCGTCCTTGCTCCGTGATGTCTTTCACACAACAGTGAATTTTATTAACCAGAACCTACGCACCTACGTGAGGAGCTTAGCCAGAAATGGGATGGACATGGATTACAAGGACGATGATGACAAG
modifications: mmRNA, FLAG tag; Synthetic: hum.tBID(77-195).FLAG
For B1, the “apoptosis of Hep3B cells” value in data set [1] is recorded as “induced apoptosis of Hep3B cells”.
